Source: patent US20050002885A1, “Topical compositions and methods for treating pseudofolliculitis barbae and ingrown hair” (priority 1993, published 2005)

How the values were obtained:
[1] = saturation concentration of acetylsalicylic acid in the solvent mixture; type: physicochemical; conditions: solvent mixture: propylene glycol about 10 percent by volume, glycerine about 2 percent by volume, balance isopropyl alcohol/water with isopropyl alcohol about 70 percent by volume
[2] = cited from earlier work

In the case of `CC(=O)Oc1ccccc1C(=O)O` [acetylsalicylic acid], the “saturation concentration of the acetylsalicylic acid in this solvent mixture” value [1] is given as “about 18 percent by weight per unit volume” and the “solubility in water or water based substances” value [2] is given as “virtually insoluble”.
